Experimental data from patent publication US20240325398A1, “COMBINATION THERAPIES” (Infinity Pharmaceuticals, Inc., priority 2014, published 2024).
Counter-ions that a name gives are not always drawn.

Legend:
HBL-1 = assay: Combination study, ATPLite 72 h, dose matrix (Synergy Score, CI50); conditions: combination with Compound 1, 72 h
SU-DHL-4-epst = assay: as above; conditions: combination with Compound 1, 72 h
HH = assay: as above; type: cell-based; conditions: combination with Compound 1
Experimental: The method is described as follows.
Additive effect is CI=1.0. […] Antagonistic effect is CI>1.0.
The Synergy Score is calculated as: […]

OCI-Ly3 = assay: as above; conditions: combination with Compound 1; OCI-Ly3; 72 h
RPMI-8226 = assay: as above; conditions: combination with Compound 1
WSU-NHL = assay: as above; conditions: combination with Compound 1, 72 h
NCI-H929 = assay: as above; conditions: combination with Compound 1
DOHH-2 = assay: as above; conditions: combination with Compound 1, 72 h
Experimental: (§1) Cells are thawed from a liquid nitrogen preserved state. Once cells have been expanded and divide at their expected doubling times, screening begins. Cells are seeded in growth media in either black 1536-well or 384-well tissue culture treated plates. Cells are then equilibrated in assay plates via centrifugation and placed in incubators attached to the Dosing Modules at 37° C. for 24 hours before treatment. […] These Tzero (To) plates are read using ultra-sensitive luminescence on Envision plate readers (Perkin Elmer). Treated assay plates are incubated with compound for 72 hours. After 72 hours, plates are developed for endpoint analysis using ATPLite. All data points are collected via automated processes, quality controlled and analyzed using Zalicus software.
The measure of effect in the experiment can be the inhibition of cellular response relative to the untreated level (vehicle alone). […] The inhibition ranges from 0% at the untreated level to 100% when T=0. Inhibition levels are negative for agents that actually increase levels.
(§2) Growth Inhibition (GI) is used as a measure of cell viability. […] A GI reading of 100% represents complete growth inhibition—T72 compound-treated and T0 vehicle signals are matched. […] A GI reading of 200% represents complete death of all cells in the culture well. Compounds reaching an activity plateau of GI 200% are considered cytotoxic. GI is calculated by applying the following test and equation:
(§3) Combination analysis data were collected in a 6×6 dose matrix. Synergy is calculated by comparing a combination's response to those of its single compound, against the drug-with-itself dose-additive reference model. Deviations from dose additivity may be assessed visually on an isobologram or numerically with a Combination Index (CI). […] Additive effect is CI=1.0. […] Antagonistic effect is CI>1.0.
(§4) To measure combination effects in excess of Loewe additivity, a scalar measure to characterize the strength of synergistic interaction termed the Synergy Score is devised. The Synergy Score is calculated as:
(§5) The fractional inhibition for each component agent and combination point in the matrix is calculated relative to the median of all vehicle-treated control wells. The Synergy Score equation integrates the experimentally-observed activity volume at each point in the matrix in excess of a model surface numerically derived from the activity of the component agents using the Loewe model for additivity. Additional terms in the Synergy Score equation (above) are used to normalize for various dilution factors used for individual agents and to allow for comparison of synergy scores across an entire experiment. The inclusion of positive inhibition gating or an Idata multiplier removes noise near the zero effect level, and biases results for synergistic interactions at that occur at high activity levels.
Loewe Volume (Loewe Vol) is used to assess the overall magnitude of the combination interaction in excess of the Loewe additivity model. Loewe Volume is particularly useful when distinguishing synergistic increases in a phenotypic activity (positive Loewe Volume) versus synergistic antagonisms (negative Loewe Volume). […] This model defines additivity as a non-synergistic combination interaction where the combination dose matrix surface should be indistinguishable from either drug crossed with itself. The calculation for Loewe additivity is:

SU-DHL-10-epst = assay: as above; conditions: combination with Compound 1, 72 h
Jeko-1 = assay: as above; conditions: combination with Compound 1
Mino = assay: as above; conditions: combination with Compound 1
TMD8 = assay: as above; conditions: combination with Compound 1; TMD8; 72 h
KARPAS-299 = assay: as above; conditions: combination with Compound 1
OMP-2 = assay: as above; conditions: combination with Compound 1; OPM-2
[1] = as above; conditions: combination with Compound 1; OPM-2
GRANTA-519 = assay: as above; conditions: combination with Compound 1
Farage = assay: as above; conditions: combination with Compound 1; Farage; 72 h
OCI-Ly7 = assay: as above; conditions: combination with Compound 1, 72 h
RL = assay: as above; conditions: combination with Compound 1, 72 h
KARPAS-422 = assay: as above; conditions: combination with Compound 1, 72 h
Experimental: as §1
where T is treated cell count and V is untreated (vehicle) cell count (at 72 hours). I ranges from 0% (when T=V) to 100% (when T=0). […] The measure of effect in the experiment can be the inhibition of cellular response relative to the untreated level (vehicle alone). […] The inhibition ranges from 0% at the untreated level to 100% when T=0. Inhibition levels are negative for agents that actually increase levels. Other effect measures, such as an activity ratio r=T/V may be more appropriate for some assays. When activity ratios (e.g, fold increase over stimulated control) are being used, the effect can be measured using an induction 1=ln(T/V). With this definition, all effect expressions are the same as for inhibition.
as §2, §3, §4, §5
Loewe Volume (Loewe Vol) is used to assess the overall magnitude of the combination interaction in excess of the Loewe additivity model. Loewe Volume is particularly useful when distinguishing synergistic increases in a phenotypic activity (positive Loewe Volume) versus synergistic antagonisms (negative Loewe Volume). […] This model defines additivity as a non-synergistic combination interaction where the combination dose matrix surface should be indistinguishable from either drug crossed with itself.

U-2932 = assay: as above; conditions: combination with Compound 1, 72 h

## Nc1ncn([C@@H]2O[C@H](CO)[C@@H](O)[C@H]2O)c(=O)n1 [Azacitidine]
HBL-1
  CI50 growth inhibition: S (S=0.01 to <0.5)
  CI50 inhibition: W (W=≥1)
SU-DHL-4-epst
  CI50 growth inhibition: S (S=0.01 to <0.5)
  CI50 inhibition: S (S=0.01 to <0.5)
HH
  CI50 growth inhibition: S (S=0.01 to <0.5)
  CI50 inhibition: S (S=0.01 to <0.5)
OCI-Ly3
  CI50 growth inhibition: S (S=0.01 to <0.5)
RPMI-8226
  CI50 growth inhibition: T (T=0.5 to <0.7)
  CI50 inhibition: W (W=≥1)
WSU-NHL
  CI50 growth inhibition: T (T=0.5 to <0.7)
  CI50 inhibition: S (S=0.01 to <0.5)
NCI-H929
  CI50 growth inhibition: U (U=0.7 to <1)
  CI50 inhibition: U (U=0.7 to <1)
DOHH-2
  CI50 growth inhibition: U (U=0.7 to <1)
  CI50 inhibition: U (U=0.7 to <1)
SU-DHL-10-epst
  CI50 growth inhibition: S (S=0.01 to <0.5)
  CI50 inhibition: S (S=0.01 to <0.5)
Jeko-1
  CI50 growth inhibition: S (S=0.01 to <0.5)
  CI50 inhibition: T (T=0.5 to <0.7)
Mino
  CI50 growth inhibition: S (S=0.01 to <0.5)
  CI50 inhibition: S (S=0.01 to <0.5)
TMD8
  CI50 growth inhibition: U (U=0.7 to <1)
  CI50 inhibition: U (U=0.7 to <1)
KARPAS-299
  CI50 growth inhibition: W (W=≥1)
  CI50 inhibition: W (W=≥1)
OMP-2
  CI50 inhibition: W (W=≥1)
[1]
  CI50 growth inhibition: S (S=0.01 to <0.5)
GRANTA-519
  CI50 growth inhibition: U (U=0.7 to <1)
Farage
  CI50 growth inhibition: S (S=0.01 to <0.5)
  CI50 inhibition: S (S=0.01 to <0.5)
OCI-Ly7
  CI50 growth inhibition: T (T=0.5 to <0.7)
  CI50 inhibition: T (T=0.5 to <0.7)
RL
  CI50 growth inhibition: T (T=0.5 to <0.7)
  CI50 inhibition: U (U=0.7 to <1)
KARPAS-422
  CI50 growth inhibition: T (T=0.5 to <0.7)
  CI50 inhibition: U (U=0.7 to <1)
U-2932
  CI50 growth inhibition: S (S=0.01 to <0.5)
  CI50 inhibition: W (W=≥1)

## COc1cccc2c1C(=O)c1c(O)c3c(c(O)c1C2=O)C[C@@](O)(C(=O)CO)C[C@@H]3O[C@H]1C[C@H](N)[C@H](O)[C@H](C)O1 [Doxorubicin HCl]
HBL-1
  CI50 growth inhibition: S (S=0.01 to <0.5)
  CI50 inhibition: U (U=0.7 to <1)
  Synergy Score growth inhibition: A3 (A3=>3)
  Synergy Score inhibition: A1 (A1=0.0001 to <1)
SU-DHL-4-epst
  CI50 growth inhibition: U (U=0.7 to <1)
  CI50 inhibition: W (W=≥1)
  Synergy Score growth inhibition: A3 (A3=>3)
  Synergy Score inhibition: A2 (A2=1 to <3)
HH
  CI50 growth inhibition: W (W=≥1)
  CI50 inhibition: T (T=0.5 to <0.7)
  Synergy Score growth inhibition: A3 (A3=>3)
  Synergy Score inhibition: A2 (A2=1 to <3)
OCI-Ly3
  CI50 growth inhibition: U (U=0.7 to <1)
  CI50 inhibition: W (W=≥1)
  Synergy Score growth inhibition: A2 (A2=1 to <3)
  Synergy Score inhibition: A1 (A1=0.0001 to <1)
RPMI-8226
  CI50 growth inhibition: U (U=0.7 to <1)
  CI50 inhibition: W (W=≥1)
  Synergy Score growth inhibition: A3 (A3=>3)
  Synergy Score inhibition: A2 (A2=1 to <3)
WSU-NHL
  CI50 growth inhibition: T (T=0.5 to <0.7)
  CI50 inhibition: S (S=0.01 to <0.5)
  Synergy Score growth inhibition: A3 (A3=>3)
  Synergy Score inhibition: A2 (A2=1 to <3)
NCI-H929
  CI50 growth inhibition: U (U=0.7 to <1)
  CI50 inhibition: U (U=0.7 to <1)
  Synergy Score growth inhibition: A3 (A3=>3)
  Synergy Score inhibition: A1 (A1=0.0001 to <1)
DOHH-2
  CI50 growth inhibition: T (T=0.5 to <0.7)
  CI50 inhibition: T (T=0.5 to <0.7)
  Synergy Score growth inhibition: A3 (A3=>3)
  Synergy Score inhibition: A2 (A2=1 to <3)
SU-DHL-10-epst
  CI50 growth inhibition: T (T=0.5 to <0.7)
  CI50 inhibition: T (T=0.5 to <0.7)
  Synergy Score growth inhibition: A3 (A3=>3)
  Synergy Score inhibition: A2 (A2=1 to <3)
Jeko-1
  CI50 growth inhibition: T (T=0.5 to <0.7)
  CI50 inhibition: U (U=0.7 to <1)
  Synergy Score growth inhibition: A3 (A3=>3)
  Synergy Score inhibition: A1 (A1=0.0001 to <1)
Mino
  CI50 growth inhibition: T (T=0.5 to <0.7)
  CI50 inhibition: T (T=0.5 to <0.7)
  Synergy Score growth inhibition: A3 (A3=>3)
  Synergy Score inhibition: A2 (A2=1 to <3)
TMD8
  CI50 growth inhibition: T (T=0.5 to <0.7)
  CI50 inhibition: T (T=0.5 to <0.7)
  Synergy Score growth inhibition: A3 (A3=>3)
  Synergy Score inhibition: A2 (A2=1 to <3)
KARPAS-299
  CI50 growth inhibition: U (U=0.7 to <1)
  CI50 inhibition: U (U=0.7 to <1)
  Synergy Score growth inhibition: A2 (A2=1 to <3)
  Synergy Score inhibition: A1 (A1=0.0001 to <1)
OMP-2
  CI50 inhibition: W (W=≥1)
  Synergy Score growth inhibition: A2 (A2=1 to <3)
  Synergy Score inhibition: A1 (A1=0.0001 to <1)
[1]
  CI50 growth inhibition: W (W=≥1)
GRANTA-519
  CI50 growth inhibition: S (S=0.01 to <0.5)
  CI50 inhibition: W (W=≥1)
  Synergy Score growth inhibition: A3 (A3=>3)
  Synergy Score inhibition: A1 (A1=0.0001 to <1)
Farage
  CI50 growth inhibition: U (U=0.7 to <1)
  CI50 inhibition: T (T=0.5 to <0.7)
  Synergy Score growth inhibition: A3 (A3=>3)
  Synergy Score inhibition: A1 (A1=0.0001 to <1)
OCI-Ly7
  CI50 growth inhibition: S (S=0.01 to <0.5)
  CI50 inhibition: S (S=0.01 to <0.5)
  Synergy Score growth inhibition: A3 (A3=>3)
  Synergy Score inhibition: A2 (A2=1 to <3)
RL
  CI50 growth inhibition: U (U=0.7 to <1)
  CI50 inhibition: W (W=≥1)
  Synergy Score growth inhibition: A2 (A2=1 to <3)
  Synergy Score inhibition: A1 (A1=0.0001 to <1)
KARPAS-422
  CI50 growth inhibition: W (W=≥1)
  CI50 inhibition: W (W=≥1)
  Synergy Score growth inhibition: A1 (A1=0.0001 to <1)
  Synergy Score inhibition: A1 (A1=0.0001 to <1)
U-2932
  CI50 growth inhibition: U (U=0.7 to <1)
  CI50 inhibition: W (W=≥1)
  Synergy Score growth inhibition: A2 (A2=1 to <3)
  Synergy Score inhibition: A1 (A1=0.0001 to <1)
